From patent US20080299076A1, “Compunds and compositions that cause non-apoptotic cell death and uses thereof” (priority 2006, published 2008) come the findings set out here.

Converted amounts (≈) assume the structure as drawn. A value given as a limit tells only on which side of the number the result lay.

The term IC50 denotes the concentration at which inhibition is half-maximal. Usually EC50 stands for the concentration that produces a half-maximal response. Low values mean an effect from little substance, high ones a need for much substance.

The subject of one series is A549 cells. Put plainly: Alamar Blue viability assay. Conditions: Homo sapiens; A549 (+KRAS). It is filed as cell-based. On the procedure: (§1) Alamar Blue metabolism: 10% Alamar Blue was added to assay plates, which were then incubated for an additional 16 hours. Red fluorescence, resulting from reduction of Alamar Blue, was detected on a Victor3 platereader (ex: 530, em: 590).
(§2) Table 2. Activity of RAS-selective lethal compound erastin in tumor cell lines. IC50 values (ng/mL) are shown using the Alamar Blue viability assay. BJ engineered tumor cells express TERT, LT, ST, and oncogenic RAS. Isogenic RAS^V12 lacking cells are identical but lack HRAS^V12. BJ-DRD cells are derived from BJ cells and contain TERT, oncogenic RAS, a truncated from of p53 (p53DD) that disrupts the tetramerization of endogenous p53, a CDK4(R24C) mutant resistant to inhibition by p16INK4A and p151NK4B (the major negative regulators of CDK4) and cyclin D1. These latter protein substitute for LT. HCT-116, A549, Calu-1, and MIA PaCa-2 are tumor cells derived from cancers (colon, lung, lung and pancreatic, respectively) known to have activating mutations in RAS.
For orientation: The colour change of resazurin is a common sign of viable cells or microbes.

The subject of a further series is BJ-TERT/LT/ST cells. The experiment in a line: Alamar Blue viability assay. It is filed as cell-based. The following applies: Homo sapiens; BJ-TERT/LT/ST (lacking HRAS^V12). On the procedure: as §1, §2
The test system of another series is Calu-1 cells. Put plainly: Alamar Blue viability assay. It counts as cell-based. The following applies: Homo sapiens; Calu-1 (+KRAS). The method, then: as §1, §2
A further series relates to HCT-116 cells. The experiment in a line: Alamar Blue viability assay. The following applies: Homo sapiens; HCT-116 (+KRAS). It counts as cell-based. The method, then:
as §1, §2

In the next series the test system is MIA PaCa-2 cells. The experiment in a line: Alamar Blue viability assay. It is filed as cell-based. The following applies: Homo sapiens; MIA PaCa-2 (+KRAS). The method, then:
as §1, §2

A further series has as its system A673. The experiment in a line: Response of tumor cell lines to erastin (dose-response). It counts as cell-based, human. The method, then:
(§3) Given that oncogenic RAS activates at least four downstream pathways, analysis was performed to identify which downstream effects were necessary for erastin sensitivity. In certain embodiments, the invention provides that erastin inhibits growth and kills genuine tumor cells with RAS mutations. In other embodiments, the invention provides measures of the dose-response of 29 tumor cell lines to erastin, wherein there is at least 50% inhibition of viability in 18 of the cell lines (Table 4). Numerous sarcoma-derived tumor cell lines were sensitive to erastin, consistent with the fact that erastin was discovered in an engineered tumor cell line created from human fibroblasts.

The subject of a further series is BJEH. Described as above. It is filed as cell-based, human. On the procedure:
as §3

A further series relates to BJELR. The series is described as above. It is filed as cell-based, human. The method, then: as §3
The test system of the next series is HT1080. The series is described as above. It counts as cell-based, human. The method, then: as §3
Series [1] relates to BJ-TERT/LT/ST/RAS^V12 cells. Put plainly: Annexin V staining. It is filed as cell-based, human. Conditions: erastin 9 μM. On the procedure:
The percentage of cells in the indicated Ml region were 6%, 6%, and 38% in untreated, erastin-treated (9 μM), and camptothecin-treated (1 μM), respectively.

Series [2] is described as follows: Stability in mouse liver microsomes. It is filed as in vitro ADME. The following applies: after 1 hr. The method, then:
The stability of erastin in mouse and human liver microsomes and in mouse and human plasma was assessed. In both human and mouse liver microsomes, after 1 hr, ˜30% of erastin was converted to its primary metabolite (the O-de-ethylated product). In both human and mouse plasma, only ˜10% of erastin was lost after five hours. Thus, erastin has sufficient metabolic and plasma stability to be tested in vivo in mice.
In general terms: Microsomes from liver hold many membrane-bound enzymes, among them those of drug oxidation.

Another series relates to tumor cell lines. Put plainly: Dose-response of panel of tumor cell lines to erastin. It is filed as cell-based. The method, then:
In certain aspects, the invention provides that erastin is lethal to tumor cells with activating mutations in proteins downstream of RAS proteins. Dose-response of 30 tumor cell lines to erastin was measured, and at least 50% inhibition of cell viability in 19 of the 30 tumor cell lines was formed. Numerous sarcoma-derived tumor cell lines were sensitive to erastin, consistent with the fact that erastin was discovered in an engineered tumor cell line created from human fibroblasts. Non-limiting examples include, HT1080 fibrosarcoma cells. HT1080 fibrosarcoma cells, which have a known activating mutation in NRAS, (Plattner, R. et al. Differential contribution of the ERK and JNK mitogen-activated protein kinase cascades to Ras transformation of HT1080 fibrosarcoma and DLD-1 colon carcinoma cells. Oncogene. 18: 1807-17 (1999)), were quite sensitive to erastin. In order to determine whether RAS-activated signaling was modulated in cell lines that respond to erastin, the phosphorylation status of ERK1/2 in 12 sarcoma cell lines with a range of sensitivities to erastin was evaluated. In certain aspects, the invention provides a non-zero correlation, such as for example, a correlation coefficient of 0.41, between ERK1/2 phosphorylation status and erastin sensitivity in these cell lines. […]

Series [3] concerns BJ-TERT/LT/ST/RAS^V12 cells. The experiment in a line: ATP detection. It counts as cell-based, human. Conditions: erastin 20 μg/mL for 12 hours. On the procedure: Cells were seeded in polystyrene 100×20 mm dishes (Falcon/#353003) in 10 mL of media. Three million cells were seeded in each dish for staurosporine (STS) and erastin treatment. Two million cells were seeded in each dish for no treatment and hydrogen peroxide treatment. Cells were treated with staurosporine (1 μM) for 12 hours, with H2O2 (16 mM) for 1.5 hours and erastin (20 μg/mL) for 12 hours. After the incubation, we counted cells using a CiCell analyzer (Beckman). 100,000 cells from each treatment were collected and washed twice in Hank's Salt Solution (10 ml). Next, we suspended cells in 200 μl of Nucleotide Releasing Buffer (BioVision/K254-200 ApoSensor Cell Viability Assay Kit) and incubated at room temperature for 10 minutes. To 10 μl of the above sample, we added 1 μl of ATP Minitoring Enzyme (BioVision/K254-200 ApoSensor Cell Viability Assay Kit) and read the ATP levels of the samples using a luminometer.
ATP levels were measured in BJERL cells treated with nothing (NT), treated with 1 μM of Staurosporine (STS) for 12 hours, with 16 mM of hydrogen peroxide for 1.5 hours and 20 μg/mL of erastin for 12 hours. ATP levels were normalized by number of viable cells.

On to `CCOc1ccccc1-n1c(C(C)N2CCN(C(=O)COc3ccc(Cl)cc3)CC2)nc2ccccc2c1=O` (stereo not shown) [erastin, 2-(1-{4-[2-(4-Chloro-phenoxy)-acetyl]-piperazin-1-yl}-ethyl)-3-(2-ethoxy-phenyl)-3H-quinazolin-4-one], for which the IC50 was over 20 µg/mL in the series on A549 cells; over 20 µg/mL in the series with BJ-TERT/LT/ST cells; 1 µg/mL (≈ 1.83 µM) in the series on Calu-1 cells; over 20 µg/mL with HCT-116 cells; 5 µg/mL (≈ 9.14 µM) with MIA PaCa-2 cells. Moreover, the “Erastin Sensitivity (maximum percent killing, as fraction)” value amounted to 0.54 in the series with A673 (A673), 0.22 in the series on BJEH (BJ-TERT), 1.00 in the series with BJELR (BJ-TERT/LT/ST/RAS^V12) and 0.98 in the series on HT1080 (HT 1080). Also, the Max % killing in the series with A673 (A673, Ewing sarcoma) came to 54%; in the series on BJEH (BJEH, foreskin fibroblast w/TERT), 22%; in the series on BJELR (BJELR, foreskin fibroblasts w/TERT, LT, ST, RAS) it was 100%; in the series on HT1080 (HT1080, Fibrosarcoma), 98%. Also, the EC50 in the series on A673 (Homo sapiens, A673) was 30 µM; in the series on BJEH (Homo sapiens, BJeH) it was 10 µM; with BJELR (Homo sapiens, BJeLR), 6 µM; with HT1080 (Homo sapiens, HT-1080, HT1080), 2000 nM. Moreover, the “percentage of cells in M1 region (Annexin V staining)” value in series [1] is 6%. For the same compound, the “converted to primary metabolite (O-de-ethylated product)” value in [2] is recorded as about 30%. Further, the “number of cell lines with at least 50% inhibition of viability” value with tumor cell lines (of 29 tumor cell lines) was 18. For the same compound, the “number of cell lines with at least 50% inhibition of cell viability” value in the series with tumor cell lines (of 30 tumor cell lines) is 19. Moreover, the “ATP levels per viable cell” value in series [3] is reported as “decreased modestly”.
